Assay results reported in the METLIN SMRT retention time set (Domingo-Almenara et al. 2019).

Assay: gradient 5% acetonitrile 3 min, to 50% in 2 min, to 85% in 15 min, held 3 min, 100 µL/min
Conditions: column: Zorbax Extend-C18 2.1 x 50 mm; eluents: water / acetonitrile, 0.1% formic acid
In short: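 The system's dead and dwell volumes were 40 μL and 900 μL, with a Zorbax Extend-C18 column (2.1 × 50 mm, 1.8 μm) run at 100 μL/min in water and acetonitrile containing 0.1% formic acid each. Pure standards were analyzed in mixtures of ~100 molecules by HPLC–quadrupole time-of-flight mass spectrometry in positive and negative ionization mode. Retention time was assigned from computationally picked, manually inspected adduct peaks.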

SMILES	RP-LC retention time [s]
COc1ccc(C(=O)NCc2nc3ccccc3[nH]2)cc1	555
COc1ccc(Cl)cc1NC(=O)CSc1ccc2nnc(-c3cccs3)n2n1	766
CC(C)Cn1c(=O)c(C(=O)NC2CCCC2)nc2cccnc21	936
O=S(=O)(c1ccc(-c2nnc(C3CCCC3)o2)o1)N1CCN(c2ccccn2)CC1	726
Cc1cc(C)n(Cc2ccc(C(=O)N3CCN(Cc4noc5ccccc45)CC3)o2)n1	672
COC(=O)c1cc2c(=O)n(CCc3c[nH]c4ccc(OC)cc34)ccc2nc1C	774
COc1ccc(NC(=O)c2cn(-c3cc(N4CCCC4)ncn3)cn2)c(OC)c1	891
CCCn1cc(C(=O)NCc2ccc(N3CCOCC3)cc2)c2cccnc21	734
COc1cccc(Cn2c(=O)c3cnc(-c4ccncc4)nc3n(C)c2=O)c1	805
COc1cc(OC)cc(C(=O)N2CCN(c3cc(=O)n(C(C)C)c(=O)n3C(C)C)CC2)c1	855
Cc1cccc(-c2nc3nc(C)cc(N(CCO)Cc4ccccc4)n3n2)c1	815
Cc1ccc(OCCOCC(O)CN(CCO)CCO)cc1C (stereo not given)	569
CCSc1nnc(NC(=O)Cc2csc(NC(=O)c3cnccn3)n2)s1	678
CC(C)c1ccc(OCC(=O)Nc2nnc(-c3ccc(Br)o3)o2)cc1	906
COc1ccc(N2C(=O)C3N=NN(Cc4nc(-c5ccc(C)c(C)c5)no4)C3C2=O)cc1 (stereo not given)	1050
COCCNC(=O)C1CCN(C(=O)c2cc3ccsc3n2Cc2ccc(Cl)cc2)CC1	843
COc1cccc(S(=O)(=O)NCc2ccc(C(=O)Nc3cccc(Cl)c3)cc2)c1	922
CC1CCCN(c2ccn3c(=O)n(CC(=O)NCc4ccc(Cl)cc4)nc3n2)C1 (stereo not given)	821
COc1ccccc1OCCNC(=O)[C@@]12CCCC[C@H]1N(C)C(=O)CC2	663
Cc1cc(C)c2c(N3CCCCC3)nc(C(=O)N3CCOCC3)nc2n1	608
O=C(NC1CCCC1)N1CCC(c2nc(C3CCOCC3)no2)CC1	691
COC(=O)c1cc(OCC(=O)Nc2ccc(OC)cc2)c2cc(OC)ccc2n1	775
COc1cc(C(O)c2nc3ccccc3s2)cc(OC)c1OC (stereo not given)	826

SMILES	RP-LC retention time [s]
CCc1ccc(NC(=O)Cn2nc3n(c2=O)CCCCC3)cc1	709
CN(CCc1noc(-c2ccc(F)cc2)n1)C(=O)NCCc1ccccc1	909
CN1C(=O)CO[C@@H](C(=O)Nc2cccc(F)c2)[C@@H]1c1ccccc1	782
Cc1oc(-c2[nH]ncc2C(=O)N(C)C)cc1S(=O)(=O)NCCN1CCOCC1	543
Cc1cccc(N2CCN(C(=O)c3ccc(Cn4cncn4)cc3)CC2C)c1 (stereo not given)	676
CNc1nc(N(C)C)nc(N(C)C)n1	602
COc1ccc(CC(=O)Nc2cnn(-c3ncc(N(C)C)cn3)c2)cc1Cl	740
Cc1ccc(N(C)C(=O)C2CCN(S(=O)(=O)c3ccc4c(c3)NC(=O)CO4)CC2)cc1	780
CCOCCCNC(=O)C(CC)n1nc(C)c2nn(-c3ccccc3)c(C)c2c1=O (stereo not given)	823
O=C(Cc1c(F)cccc1Cl)NC1CCN(c2cc(-c3cccs3)[nH]n2)C1 (stereo not given)	747
CNc1nccc(N2CCC(CC(=O)O)CC2)n1	576
CC(C)Cn1cc(CCNS(=O)(=O)c2ccc(F)c(Cl)c2)c2cccnc21	1000
CCC(C)(C)NS(=O)(=O)c1cc(-c2nc(C(C)(C)C)cs2)cs1	1300
CN(C)CCn1nnc2cc(-c3noc(Cc4cccc(F)c4)n3)ccc21	668
CC1CCc2cc(F)cc3c(=O)c(C(=O)O)cn1c23 (stereo not given)	806
Cc1ccsc1CCNC(=O)C1CCN(S(=O)(=O)c2ccc3c(c2)CCCC(=O)N3)CC1	760
CCN1C(=O)c2cccnc2Sc2cc(NC(=O)COc3cccc(Cl)c3)ccc21	916
Cn1nc(CNC(=O)c2cnccn2)c2ccccc21	689
O=C(CSc1nc2ccsc2c(=O)n1-c1ccc(F)cc1)Nc1ncn[nH]1	667
CCOC(=O)N1CCN(C(=O)CSc2nnc(COc3ccc(Cl)cc3)o2)CC1	799
COc1cc(NC(=O)NC2CCN(c3ccc(F)cc3)C2=O)cc(OC)c1 (stereo not given)	769
c1ccc2c(OCc3nc4ccccc4[nH]3)cccc2c1	626
Cc1ccc(-n2ncc3c(=O)n(Cc4nc(-c5ccc(Cl)c(F)c5)no4)cnc32)cc1	1210

SMILES	RP-LC retention time [s]
Cc1ccc(-n2cc3c(c(C(=O)Nc4ccc5c(c4)OCCO5)c2=O)CC(C)(C)CC3=O)cc1	1070
Cc1ccc(-c2ccc(-n3nc(C)c(S(=O)(=O)N4CCC(C)CC4)c3C)nn2)cc1	1260
CCS(=O)(=O)Nc1ccc(-c2noc(COc3ccc(Cl)cc3)n2)cc1	1010
CCOc1ccc(CNS(=O)(=O)c2cc(-c3cnn4c(C)cc(C)nc34)ccc2C)cc1OCC	1040
Cc1ccccc1N1CCN(S(=O)(=O)c2cc(-c3nnc(C4CCC4)o3)co2)CC1	1140
CN(CCc1noc(C2CN(C(=O)c3ccsc3)C2)n1)C(=O)C1CC1	647
COCCn1c(C)cc(O)c(C(c2ccc(SC)cc2)N2CCC(C)CC2)c1=O (stereo not given)	1050
Cc1nn(-c2nc(CC(=O)Nc3nc(-c4ccccc4)cs3)cs2)c(C)c1Cl	1270
CCc1nc(OCC(=O)NCc2cccc(C)c2)c2c(C)c(C)oc2n1	947
CC(Oc1ccccc1)C(=O)NCCCn1cccc1 (stereo not given)	783
CCC(CC)C(=O)N1CCC2(CC1)CN(C)CC2c1nc(-c2ccncc2)n[nH]1 (stereo not given)	565
COC(=O)c1ccc(N2C=C(C#N)S(=O)(=O)c3c(F)cccc32)cc1	858
O=C(NCC1CCCO1)c1ccc2nc(CCc3ccccc3)oc2c1 (stereo not given)	840
O=C(Cn1nc(N2CCOCC2)c2ccccc2c1=O)Nc1ccc(Br)cc1	864
O=C1Nc2cc(C(=O)N3CCC(Cc4ccccc4)CC3)ccc2N2CCCCC12 (stereo not given)	1020
CCOC(=O)C1=C(CN(C)Cc2ccccc2)NC(=O)NC1c1ccc(Cl)cc1 (stereo not given)	698
CC1CCCN(c2nn(CC(=O)Nc3cc(F)cc(F)c3)c(=O)c3ccccc23)C1 (stereo not given)	1180
CCCn1cc(C(=O)NCCCOCC)c(S(=O)(=O)N2CCN(c3ccccc3Cl)CC2)n1	1090
COc1cc(OC)cc(C(=O)Nc2ccc(N3CCN(C4CCCC4)C3=O)nc2)c1	829
CCN(c1cccc(C)c1)S(=O)(=O)c1ccc2c(c1)N(C(C)=O)CCCS2	986
CN1C(=O)CCc2cc(NC(=O)c3cccs3)ccc21	671
Cc1ccsc1C(=O)N1CCc2[nH]cnc2C12CCCCC2	606
CCCn1cc(S(=O)(=O)Nc2ccc(C)c(F)c2)c2cccnc21	921

SMILES	RP-LC retention time [s]
CC(C)n1c(=O)c(NCc2ccccc2C(F)(F)F)nc2ccncc21	714
Cc1[nH]c(C(=O)N2CCC(CC(=O)NCc3ccccc3Cl)CC2)c(C)c1C(=O)OC(C)C	876
CCCN1C(=O)c2cc(S(=O)(=O)NC(C)C)ccc2Oc2cccnc21	960
NC(=O)C1CCN(C2CC(=O)N(Cc3ccccc3)C2=O)CC1 (stereo not given)	579
COc1cccc(-c2noc(Cn3c(=O)n(-c4cccc(F)c4)c(=O)c4sccc43)n2)c1	957
CC(NC(=O)c1cn2c(n1)CSCC2)c1ccc(F)cc1 (stereo not given)	638
COc1ccc(N2CCN(c3cc(SCC(=O)Nc4ccccc4OC)ncn3)CC2)cc1	1040
O=C(NCc1ccco1)C1CCN(c2cncnc2N2CCCCC2)CC1	646
O=C(Nc1ccc(F)c(F)c1)C1CCCN(C(=O)Cc2cccc3ccccc23)C1 (stereo not given)	1020
O=C(NCc1ccco1)c1ccc(Nc2c(-c3ccccc3)nc3cnccn23)cc1	733
O=C(Nc1ccc2c(c1)CCN2S(=O)(=O)c1ccccc1)Nc1cc(F)ccc1F	1070
c1ccc(O[C@H]2CN(C3CCNCC3)[C@H]2c2ccncc2)cc1	552
CN1C(=O)c2cccn2CC1CNC(=O)c1n[nH]c(=O)c2ccccc12 (stereo not given)	764
CC(C)(C)C(=O)Nc1cnc(-c2ccc(Cl)cc2)nc1	1060
CCCN1C(=O)Cc2c(C)nc(-c3cccc(F)c3)nc21	1090
CC(C)CCNC(=O)C1(C)Cn2nc(C(=O)NCc3ccc(Cl)cc3)cc2C(=O)N1C (stereo not given)	822
CCOc1ccc(NC(=O)Cn2c(=O)n(-c3ccccc3)c(=O)c3sc(SCC)nc32)cc1	981
COc1ccc(-c2noc(-c3cccn(CC(=O)NC(C)C)c3=O)n2)cc1OC	688
CN1C2CCC1CC(NC(=O)c1nn(C)c3ccccc13)C2 (stereo not given)	655
COc1ccc(NC(=O)C2CCN(S(=O)(=O)c3cc(C(=O)N4CCCC4)n(C)c3)CC2)cc1	729
COc1cccc(-c2csc(Cc3nc(-c4ccc(Br)cc4)no3)n2)c1	1280
